Assay results as given in PMC10714400, “Antimicrobial Peptide–Peptoid Hybrids with and without Membrane Disruption” (ACS Infectious Diseases, 2023).
Where two headings read alike, the source gives them in different places.

How the values were obtained:
B. cenocepacia = conditions: MH pH 7.4, 16–20 h at 37 °C
How it was run: (§1)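 Using MTT as a visual viability dye, MICs were scored as the lowest concentration with no visible growth. Prior to staining, ~5 × 10^5 CFU per well grew in MH medium for ca. 18 h at 37 °C under static conditions.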

S. aureus Newman = system: S. aureus Newman
How it was run: as §1

P. aeruginosa PA14 = system: P. aeruginosa PA14
How it was run: as §1

S. maltophilia = system: S. maltophilia
How it was run: as §1

S. epidermis = system: S. epidermis
How it was run: as §1

P. aeruginosa PAO1 [1] = assay: Transmission electron microscopy (TEM); type: cell-based, Pseudomonas aeruginosa; conditions: P. aeruginosa PAO1, 10 × MIC, […] MH at pH 8.5, 2 h at 37 °C
Protocol: Scale bars are 500 nm and 1 μm. Red arrows: membrane perturbations. Blue arrows: intracellular aggregation. Yellow arrows: empty area within the cell.
(§2) Just before the samples were further prepared for the microscopy, surviving bacteria were quantified by plating 10-fold dilutions of samples in sterilized normal saline (NaCl 0.9%) on LB agar plates. […] The assay was performed in triplicate. Each bacteria sample was centrifuged at 12,000 rpm for 3 min, and the supernatant was discarded. The samples were then further processed and imaged using our previously described protocol.[64]

PA14 4.18 (pmrB) = system: PA14 4.18 (pmrB)
How it was run: as §1

K. pneumoniae OXA-48 = system: K. pneumoniae OXA-48
How it was run: as §1

E. cloacae = system: E. cloacae
How it was run: as §1

[2] = system: ZEM-1A (clinical MDR P. aeruginosa isolate)
How it was run: as §1

E. coli W3110 = system: E. coli W3110
How it was run: as §1

PA14 4.13 (phoQ) = system: PA14 4.13 (phoQ)
How it was run: as §1

S. aureus COL (MRSA) = system: S. aureus COL (MRSA)
How it was run: as §1

K. pneumoniae NCTC418 = conditions: Table S2
How it was run: (§3)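 MTT added (20–30 min, room temperature); MIC read by eye as lowest concentration inhibiting visible growth (yellow). Polymyxin B positive control from 16 μg/mL.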

PA14 2P4 (pmrB) = conditions: Table S3; […] MH at pH 8.5
How it was run: as §1

P. aeruginosa PAO1 [3] = system: P. aeruginosa PAO1
How it was run: as §1

[4] = system: ZEM9A (clinical MDR P. aeruginosa isolate)
How it was run: as §1

A. baumannii ATCC19606 = conditions: Table S2
How it was run: as §3

P. aeruginosa PAO1 [5] = assay: Bacterial count after treatment, before TEM sample preparation; type: cell-based, Pseudomonas aeruginosa; conditions: P. aeruginosa PAO1, […] MH pH 8.5, 10x MIC
Protocol: as §2
8. Transmission electron microscopy (TEM)
Table S4: Bacterial counts, 2 hours after treatment, before TEM sample preparation. Data represents triplicates.
Bacteria count after treatment at 10x MIC and 2 h of incubation at 37 °C
Control (non-treated cells) 1 × 10^8 CFU (100)

[6] = system: human red blood cells (hRBC); assay: Minimum hemolytic concentration (MHC); type: cell-based; conditions: hRBC, 10 mM phosphate buffer, 150 mM NaCl, pH 7.4, 25 °C, 4 h
Text: We also measured minimal hemolysis concentrations (MHC) on human red blood cells by serial 2-fold dilution as an indication of toxicity against eukaryotic cells (Table 1).

## Polymyxin B [PMB, reference compound]
B. cenocepacia
  MIC B. cenocepacia: >16 µg/mL
S. aureus Newman; MH pH 7.4, 16–20 h at 37 °C
  MIC S. aureus Newman: >16 µg/mL
S. aureus Newman; Table S3, […] MH at pH 8.5
  MIC S. aureus Newman: 2 µg/mL
P. aeruginosa PA14; MH pH 7.4, 16–20 h at 37 °C
  MIC P. aeruginosa PA14: <0.13 µg/mL
P. aeruginosa PA14; Table S3, […] MH at pH 8.5, 16-20 hours at 37 °C
  MIC P. aeruginosa PA14: 0.25 µg/mL
S. maltophilia; MH pH 7.4, 16–20 h at 37 °C
  MIC S. maltophilia: 0.5 µg/mL
S. maltophilia; Table S3, […] MH at pH 8.5
  MIC S. maltophilia: 2 µg/mL
S. epidermis; MH pH 7.4, 16–20 h at 37 °C
  MIC S. epidermis: >16 µg/mL
S. epidermis; Table S3, […] MH at pH 8.5
  MIC S. epidermis: 2 µg/mL
P. aeruginosa PAO1 [1]
  TEM micrographs, changes in treated bacteria: blebbing and a disrupted outer membrane
PA14 4.18 (pmrB); MH pH 7.4, 16–20 h at 37 °C
  MIC PA14 4.18 (pmrB): 1 µg/mL
PA14 4.18 (pmrB); Table S3, […] MH at pH 8.5
  MIC P. aeruginosa PA14 4.18: 0.25 µg/mL
K. pneumoniae OXA-48; MH pH 7.4, 16–20 h at 37 °C
  MIC K. pneumoniae OXA-48: 1 to 2 µg/mL
K. pneumoniae OXA-48; Table S3, […] MH at pH 8.5
  MIC K. pneumoniae OXA-48: 1 to 2 µg/mL
E. cloacae; MH pH 7.4, 16–20 h at 37 °C
  MIC E. cloacae: 0.5 to 1 µg/mL
E. cloacae; Table S3, […] MH at pH 8.5
  MIC E. cloacae: 1 to 2 µg/mL
[2]; MH pH 7.4, 16–20 h at 37 °C
  MIC ZEM-1A: <0.13 µg/mL
[2]; Table S3, […] MH at pH 8.5
  MIC P. aeruginosa ZEM-1A: 1 µg/mL
E. coli W3110; E. coli W3110, […] MH at pH 8.5, up to 300 mM NaCl
  Antibacterial activity as a function of NaCl concentration: less affected
E. coli W3110; Table S2, […] MH, pH 7.4
  MIC E. coli W3110 […] 7.4: 0.5 µg/mL
E. coli W3110; Table S2, […] MH, pH 8.5
  MIC E. coli W3110 […] 8.5: 0.25 µg/mL
E. coli W3110; Table S2, full MH, pH 7.4
  MIC E. coli W3110 Full MH 7.4: 0.25 µg/mL
E. coli W3110; Table S2, full MH, pH 8.5
  MIC E. coli W3110 Full MH 8.5: < 0.1 µg/mL
PA14 4.13 (phoQ); MH pH 7.4, 16–20 h at 37 °C
  MIC PA14 4.13 (phoQ): 0.25 µg/mL
PA14 4.13 (phoQ); Table S3, […] MH at pH 8.5
  MIC P. aeruginosa PA14 4.13: 0.5 µg/mL
S. aureus COL (MRSA); Table S2, […] MH, pH 7.4
  MIC S. aureus COL (MRSA) […] 7.4: 8 µg/mL
S. aureus COL (MRSA); Table S2, […] MH, pH 8.5
  MIC S. aureus COL (MRSA) […] 8.5: 1 µg/mL
S. aureus COL (MRSA); Table S2, full MH, pH 7.4
  MIC S. aureus COL (MRSA) Full MH 7.4: > 64 µg/mL
S. aureus COL (MRSA); Table S2, full MH, pH 8.5
  MIC S. aureus COL (MRSA) Full MH 8.5: 2 µg/mL
S. aureus COL (MRSA); full MH, pH 7.4, 16–20 h at 37 °C
  MIC S. aureus COL (MRSA) Full: >32 µg/mL
K. pneumoniae NCTC418; […] MH, pH 7.4
  MIC K. pneumoniae NCTC418 […] 7.4: 0.5 µg/mL
K. pneumoniae NCTC418; […] MH, pH 8.5
  MIC K. pneumoniae NCTC418 […] 8.5: 0.5 µg/mL
K. pneumoniae NCTC418; full MH, pH 7.4
  MIC K. pneumoniae NCTC418 Full MH 7.4: 0.25 µg/mL
K. pneumoniae NCTC418; full MH, pH 8.5
  MIC K. pneumoniae NCTC418 Full MH 8.5: 0.25 µg/mL
PA14 2P4 (pmrB)
  MIC P. aeruginosa PA14 2P4: 1 µg/mL
P. aeruginosa PAO1 [3]; P. aeruginosa PAO1, […] MH at pH 8.5, up to 300 mM NaCl
  Antibacterial activity as a function of NaCl concentration: less affected
P. aeruginosa PAO1 [3]; Table S2, […] MH, pH 7.4
  MIC P. aeruginosa PAO1 […] 7.4: 0.5 µg/mL
P. aeruginosa PAO1 [3]; Table S2, […] MH, pH 8.5
  MIC P. aeruginosa PAO1 […] 8.5: 0.5 µg/mL
P. aeruginosa PAO1 [3]; Table S2, full MH, pH 7.4
  MIC P. aeruginosa PAO1 Full MH 7.4: 0.5 µg/mL
P. aeruginosa PAO1 [3]; Table S2, full MH, pH 8.5
  MIC P. aeruginosa PAO1 Full MH 8.5: 0.25 µg/mL
P. aeruginosa PAO1 [3]; diluted MH ([…] MH, pH 8.5) per Table 1 footnote b, 16–20 h at 37 °C
  MIC P. aeruginosa PAO1 […]: 0.5 µg/mL
[4]; MH pH 7.4, 16–20 h at 37 °C
  MIC ZEM9A: 2 µg/mL
[4]; Table S3, […] MH at pH 8.5
  MIC P. aeruginosa ZEM9A: 1 to 2 µg/mL
A. baumannii ATCC19606; […] MH, pH 7.4
  MIC A. baumannii ATCC19606 […] 7.4: 0.5 µg/mL
A. baumannii ATCC19606; […] MH, pH 8.5
  MIC A. baumannii ATCC19606 […] 8.5: 0.25 µg/mL
A. baumannii ATCC19606; full MH, pH 7.4
  MIC A. baumannii ATCC19606 Full MH 7.4: 0.25 µg/mL
A. baumannii ATCC19606; full MH, pH 8.5
  MIC A. baumannii ATCC19606 Full MH 8.5: 0.25 µg/mL
P. aeruginosa PAO1 [5]
  Bacteria count after treatment at 10x MIC and 2 h of incubation at 37 °C (% of control): 1 % of control
[6]; Table S2
  MHC: > 2000 µg/mL
[6]
  MHC: >2000 µg/mL
